Where a name gives a salt, the structure may show the parent alone.

For test [1], the system named is YY1. Description: YY1 expression in PC-3 cells.
The subject of test [2] is YY1. Description: YY1 activity by luciferase reporter assay in PC-3.
The test system of the next test is DR5 promoter. Description: DR5 luciferase reporter system (pDR5 wild type) in PC3 cells. The format is cell-based, human. Particulars: PC3 transfected with pDR5, drug treatment vs basal. The source says: Another reporter gene system of use in the present invention utilized firefly luciferase luminescence as the reporter signal. In this reporter system, a wild-type DR5 promoter is operably linked to a luciferase reporter sequence. The wild-type DR5YY1 responsive site can be used in parallel with a DR5 promoter having a non-functional YY1 responsive site, for example, a 5′-deletion mutant-605 that includes the YY1 binding site (pDR5/-605) (described in Yoshida, et al, (2001) FEBS Letters, 507:381-385), or a DR5 promoter sequence missing the YY1 binding sequence (pDR5-YY1 mutant) (see, Huerta-Yepez, et al., AACR Abstract, 2005).
However, many drug-resistant tumor cells are also resistant to TRAIL and such tumors require sensitization to reverse TRAIL resistance. […] This hypothesis was tested by examining a luciferase reporter system (pDR5 wild type) and plasmids in which the YY1-binding site was either deleted (pDR5/-605) and/or mutated (pDR5-YY1 mutant).
(In general: Reporter assays use an easily measured gene product as a stand-in for the process of interest.)

The target in test [3] is T1, YY1 (Homo sapiens, UniProt P25490). Description: YY1 DNA-binding activity in PC-3 cells. It is filed as cell-based. Set-up: endogenous in cells; host or cells: PC-3.
T1 sequence (P25490 whole entry): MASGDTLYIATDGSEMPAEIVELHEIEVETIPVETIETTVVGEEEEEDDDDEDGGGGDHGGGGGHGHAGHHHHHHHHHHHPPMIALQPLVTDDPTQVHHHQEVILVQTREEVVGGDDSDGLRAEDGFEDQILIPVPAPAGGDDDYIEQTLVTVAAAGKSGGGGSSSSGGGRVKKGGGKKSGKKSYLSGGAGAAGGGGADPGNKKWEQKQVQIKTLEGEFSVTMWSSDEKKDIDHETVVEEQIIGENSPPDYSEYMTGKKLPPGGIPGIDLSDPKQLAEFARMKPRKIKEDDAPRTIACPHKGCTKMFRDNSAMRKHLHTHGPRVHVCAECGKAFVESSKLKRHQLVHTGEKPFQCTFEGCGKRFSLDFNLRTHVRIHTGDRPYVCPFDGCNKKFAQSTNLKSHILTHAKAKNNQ
The test system of test [4] is B-NHL cell lines. Briefly: Sensitization to CH-11 (FasL agonist mAb)-induced apoptosis in B-NHL cell lines. It is filed as cell-based. The source says: (§1) We have recently reported that treatment of B-Non-Hodgkin's Lymphoma (NHL) cell lines with rituximab (anti-CD20 antibody) sensitizes the tumor cells to both chemotherapy and Fas-induced apoptosis (Jazirehi and Bonavida, 2005, Oncogene, 24:2121-2145). This study investigated the underlying molecular mechanism of rituximab-mediated reversal of resistance. Treatment of B-NHL cell lines inhibited the constitutively activated NF-κB. Cells expressing dominant active IκB or treated with NF-κB specific inhibitors were sensitized to both drugs and FasL agonist mAb (CH-11)-induced apoptosis. Downregulation of Bcl-xL expression via inhibition of NF-κB activity correlated with chemosensitivity. […] The role of Bcl-xL expression in the regulation of Fas resistance was not apparent as Ramos HA-Bcl cells were as sensitive as the wild type cells to CH-11-induced apoptosis. […] These findings show two complementary mechanisms underlying the chemo-sensitization and immuno-sensitization of B NHL cells by rituximab via inhibition of NF-κB. The regulation of chemoresistance by NF-B is mediated via Bcl-xL expression whereas the regulation of Fas resistance by NF-B is mediated via YY1 expression and activity.
(§2) We have reported that rituximab triggers and inhibits anti-apoptotic gene products in NHL B-cell lines resulting in sensitization to drug-induced apoptosis (Alas et al., Clin. Cancer Res. 8:836, 2001; Jazirehi et al., Mol. Cancer. Therapy 2:1183, 2003; Vega et al., Oncogene 23:3530, 2004). This study investigated whether rituximab also modifies intracellular signaling pathways resulting in the sensitization of NHL cells to Fas-induced apoptosis. […] Downregulation of YY1 expression was the result of rituximab-induced inhibition of both the p38MAPK signaling pathway and constitutive NF-κB activity. The dual roles of NF-κB and YY1 in the regulation of Fas expression were corroborated by the use of a dominant-active inhibitor of NF-κB (Ramos IκB-ER mutant) and YY1 siRNA, respectively. […]

Test [5] concerns PC-3 cells. Briefly: Sensitization to TRAIL-induced apoptosis, prostate carcinoma cells. It is filed as cell-based, human. Particulars: 500 μM, 1000 μM, 18 h. As to the method: (§3) Yin-Yang 1 (YY1) is a transcription factor that may activate or repress gene expression. […] In this study, we examined the direct S-nitrosylation of YY1 using the human prostate cancer cell line, PC-3, as model. Culture cells were incubated for 18 h in the presence of various concentrations of the NO donor DETANONOate (500 μM, 1000 μM) that sensitized PC-3 to Fas ligand- and TRAIL-mediated apoptosis. Subsequently, we analyzed for S-nitrosylation of YY1 by various methods. […] Noteworthy, significant constitutive S-nitrosylated proteins were detected. Further, using double immunofluorescence staining microscopy, we co-localized the presence of S-nitrosylated proteins and YY1.

The target of test [6] is T1, YY1. Briefly: YY1 activity in B-NHL cell lines. It is filed as cell-based. Further details: endogenous in cells; host or cells: 2F7, Ramos, Raji; rituximab-resistant Ramos RR1.
Text: as §1, §2

A further test relates to DR5. Briefly: DR5 expression in PC-3 cells by flow, RT-PCR and western. It is filed as cell-based, human.
In another test the test system is Fas. Description: Fas expression in B-NHL cell lines (flow cytometry, RT-PCR, Western). It is filed as cell-based.
Text: as §1, §2
On the technique in general: A flow cytometer gives signals particle by particle.

The test system of test [7] is NF-κB. Description: NF-κB DNA-binding activity in PC-3 cells. It is filed as cell-based, human.
The test system of test [8] is PC-3 cells. Conditions: TRAIL-resistant human prostate carcinoma (CaP) cell lines; Huerta-Yepez et al. 2004; cited from earlier work.
The test system of test [9] is PC-3 cells. Description: Sensitization to Fas ligand-mediated apoptosis, PC-3. It is filed as cell-based, human. Conditions: 500 μM, 1000 μM, 18 h. As to the method: as §3
Test [10] relates to PC-3 cells. Description: General S-nitrosylation of proteins in PC-3 by immunohistochemistry. It is filed as cell-based, human. Conditions: PC-3, after treatment with NO. How it is done:
as §3

Test [11] has as its system YY1. Description: YY1 expression in rituximab-resistant Ramos RR1 cells. It is filed as cell-based. Particulars: alone or in combination with NF-κB inhibitors.
Protocol: Ramos and Ramos RR1 cells were treated with vincristine, VP-16, CDDP, and ADR, and the NF-κB inhibitors Bortezomib and DHMEQ.
The subject of test [12] is YY1. Description: YY1 expression in NHL B-cell lines. It is filed as cell-based. Particulars: NHL B cell lines (Example 9). The source says: (§4) We have reported that rituximab triggers and inhibits anti-apoptotic gene products in NHL B-cell lines resulting in sensitization to drug-induced apoptosis (Alas et al., Clin. Cancer Res. 8:836, 2001; Jazirehi et al., Mol. Cancer. Therapy 2:1183, 2003; Vega et al., Oncogene 23:3530, 2004). This study investigated whether rituximab also modifies intracellular signaling pathways resulting in the sensitization of NHL cells to Fas-induced apoptosis. […] Downregulation of YY1 expression was the result of rituximab-induced inhibition of both the p38MAPK signaling pathway and constitutive NF-κB activity. The dual roles of NF-κB and YY1 in the regulation of Fas expression were corroborated by the use of a dominant-active inhibitor of NF-κB (Ramos IκB-ER mutant) and YY1 siRNA, respectively. The role of rituximab-mediated inhibition of the p38MAPK/NF-κB/YY1 pathways, which result in both Fas upregulation and sensitization to CH11-induced apoptosis, was corroborated by the use of specific chemical inhibitors directed at various targets of these pathways. […] Altogether, these findings provide a novel mechanism of rituximab-mediated signaling by inhibiting the p38MAPK/NF-κB/YY1 pathways and resulting in the sensitization of B NHL to Fas-induced apoptosis. […]

In test [13] the test system is Ramos cells. Conditions: B-NHL cell lines; Jazirehi and Bonavida 2005; cited from earlier work.
Test [14] concerns NF-κB. Description: Constitutive NF-κB activity in NHL cell lines. It is filed as cell-based. Conditions: NHL B cell lines.
Text: as §4

Test [15] concerns p38MAPK signaling pathway. Description: p38MAPK signaling pathway in NHL cell lines. It is filed as cell-based. Conditions: NHL B cell lines.
Text: as §4

In test [16] the test system is B-NHL cell lines. Particulars: Jazirehi and Bonavida 2005; cited from earlier work.
Test [17] has as its system Ramos cells. Description: Chemosensitization to drug-induced apoptosis in Ramos B-NHL cells and variants. The format is cell-based.
Text: as §1

`COc1cc2c(cc1O)CC[C@@H]1[C@@H]2CC[C@]2(C)[C@@H](O)CC[C@@H]12` [2-methoxyestradiol, 2-Methoxyestradiol]: the YY1 expression result with YY1 [1] was “marked reduction”. The “YY1 activity (luciferase reporter assay)” value in the test on YY1 [2] is recorded as “marked reduction”.
As to `COc1cccc2c1C(=O)c1c(O)c3c(c(O)c1C2=O)C[C@@](O)(C(=O)CO)C[C@@H]3O[C@H]1C[C@H](N)[C@H](O)[C@H](C)O1` [ADR, doxorubicin hydrochloride], the luciferase activity entry in the test with DR5 promoter was “significantly augmented luciferase activity”.
The same measure, in the same setting: under `[NH2][Pt]([NH2])([Cl])[Cl]` [CDDP, cisplatin] stands “significantly augmented luciferase activity”.
For the compound `NCCN(CCN)/[N+]([O-])=N/O` [DETANONOate, 3,3-bis(aminoethyl)-1-hydroxy-2-oxo-*1-triazene], the “YY1 DNA-binding activity” value at YY1 [3] was “inhibited”. The “sensitization to CH-11-induced apoptosis” value in the test with B-NHL cell lines [4] (B-NHL cell lines (Example 6)) is “sensitization to CH-11-induced apoptosis”. For the same compound, the YY1 expression entry in the test on YY1 [1] is given as “inhibited YY1 expression”. The “sensitization to TRAIL-mediated apoptosis” value with PC-3 cells [5] is “sensitized”. For the same compound, at YY1 [6] (B-NHL cell lines (Example 6)), the YY1 activity result is “Inhibition of YY1 activity”. The DR5 expression result in the test with DR5 is given as “significant upregulation of DR5 expression”. For the same compound, the Fas expression result in the test with Fas (B-NHL cell lines (Example 6)) is on record as “upregulation of Fas expression”. For the same compound, in the test on NF-κB [7], the “NF-κB DNA-binding activity” value is given as “inhibited”. Moreover, the “sensitization of TRAIL-resistant CaP cell lines” value with PC-3 cells [8] is given as “can be sensitized”. Besides, the “sensitization to Fas ligand-mediated apoptosis” value in the test with PC-3 cells [9] is “sensitized”.
Regarding `[N]=O` [NO, nitric oxide], in the test on PC-3 cells [10], the “general S-nitrosylation of proteins” value is “increased”.
`CC[C@]1(O)C[C@H]2CN(CCc3c([nH]c4ccccc34)[C@@](C(=O)OC)(c3cc4c(cc3OC)N(C=O)[C@H]3[C@@](O)(C(=O)OC)[C@H](OC(C)=O)[C@]5(CC)C=CCN6CC[C@]43[C@@H]65)C2)C1` [vincristine]: the YY1 expression entry in the test on YY1 [11] is listed as “significantly abrogated or diminished YY1 expression”.
As for rituximab: anti-CD20 antibody, the “sensitization to CH-11-induced apoptosis” value in the test on B-NHL cell lines [4] (2F7, Ramos and Raji, 20 μg/ml) was “sensitized the cells to CH-11 (FasL agonist mAb)-induced apoptosis and synergy was achieved”; in the test on B-NHL cell lines [4] (B-NHL cell lines (Example 6)) it was “sensitization to CH-11-induced apoptosis”. In the test with YY1 [12], the YY1 expression result was “inhibited”. In addition, the sensitization to chemotherapy entry in the test with Ramos cells [13] was “sensitizes”. For the same compound, in the test with NF-κB [14], the “constitutive NF-κB activity” value is on record as “inhibition”. Moreover, the YY1 activity result is on record as “Inhibition of YY1 activity” in the test with YY1 [6] (B-NHL cell lines (Example 6)) and “inhibited” with YY1 [6] (NHL B cell lines (Example 9)). Also, the p38MAPK signaling pathway entry in test [15] was “inhibition”. The Fas expression entry in the test with Fas (B-NHL cell lines (Example 6)) was “upregulation of Fas expression”; in the test on Fas (NHL cell lines, as early as 6 h post treatment, flow cytometry, RT-PCR, Western) it was “up-regulated”. Further, the “sensitization to Fas-induced apoptosis” value in the test on B-NHL cell lines [16] is given as “sensitizes”. In the test with Ramos cells [17] (Bcl-xL overexpressing Ramos HA-BclxL cells), the “sensitization to drug-induced apoptosis” value is “not sensitized”. Besides, the chemosensitization result in the test on Ramos cells [17] (rituximab-resistant Ramos RR1 cells) is given as “cannot be chemosensitized”.

These data come from patent publication US20080311039A1, “Therapeutic and Prognostic Factor Yy1 in Human Cancer” (The Regents of the University of California, priority 2004, published 2008).
